One compound from patent US20020037933A1, “Management of septic shock” (priority 2000, published 2002) can be followed below.

The data set relates to endotoxemic pigs (E. coli endotoxin infusion).
Where [1] appears, read: during the endotoxemic period, versus fat emulsion.

Regarding `CC(C)c1cccc(C(C)C)c1O` [propofol, 2,6-diisopropylphenol], where the note is “already anaesthetised endotoxaemic pigs”, the “deaths from hypotension and/or release of gut bacteria into the bloodstream” value is given as “No deaths”. Further, under setting [1], the “arterial carbon dioxide tension (PaCO2)” value is given as “lower” and the “arterial oxygen tension (PaO2)” value was “higher”. Moreover, the “counteracting endotoxin induced deterioration of arterial oxygen tension (PaO2)” value (endotoxaemic pigs) is recorded as “effective”.
